Assay results reported in patent publication US20180298405A1, “METHODS AND COMPOSITIONS TO INCREASE HUMAN SOMATIC CELL NUCLEAR TRANSFER (SCNT) EFFICIENCY BY REMOVING HISTONE H3-LYSINE TRIMETHYLATION, AND DERIVATION OF HUMAN NT-ESC” (CHILDREN'S MEDICAL CENTER CORPORATION, priority 2015, published 2018).

Test system: H3K9me3
Assay: Immunostaining of H3K9me3 in 1-cell mouse SCNT embryos after mRNA injection
Format: cell-based
Conditions: 1-cell stage, 5 hours after mRNA injection
Method: Mouse somatic cell nuclear transfer was carried out as described previously (Matoba et al., 2014). Briefly, both recipient MII oocytes and donor cumulus cells were collected from adult BDF1 female mice through superovulation by injecting 7.5 IU of pregnant mare serum gonadotropin (PMSG; Millipore #367222) and 7.5 IU of human chorionic gonadotropin (hCG; Millipore #230734). Fifteen to seventeen hours after the hCG injection, cumulus-oocyte complexes (COCs) were collected from the oviducts and treated briefly with Hepes-buffered potassium simplex-optimized medium (KSOM) containing 300 U/ml bovine testicular hyaluronidase (Calbiochem #385931) to obtain dissociated MII oocytes and cumulus cells. Isolated MII oocytes were enucleated in Hepes-buffered KSOM medium containing 7.5 jig/ml of cytochalasin B (Calbiochem #250233) by using Piezo-driven micromanipulator (Primetech # PMM-150FU). The nuclei of donor cumulus cells were injected into the enucleated oocytes. After 1 h incubation in KSOM, reconstructed SCNT oocytes were activated by incubating in Ca-free KSOM containing 2.5 mM SrCl2 and 5 jig/ml cytochalasin B for 1 h, and further cultured in KSOM with cytochalasin B for 4 h. […] Preimplantation developmental rates were analyzed by Student's T-test. […]

Question: With “KDM4A mRNA: in vitro transcribed mRNA of full length human KDM4A/JHDM3A cDNA, an H3K9me3 demethylase (SEQ ID NO: 1)” as the substance, how does the “H3K9me3 levels in the nucleus of mouse SCNT embryos” value read?
Answer: greatly reduced H3K9me3 levels
